One assay has as its system rat MCAO model of stroke. Nature of the assay: in vivo assay on brain injury following MCAO. Set-up: species or system Sprague-Dawley rats. How it is done:
The control group received Hepes buffered saline.
Four drug treated groups received Compound 1. For each rat, the treatment was initiated at 60 minutes post middle cerebral artery occlusion (MCAO) by an IV bolus injection which was immediately followed by IV infusion for 4 hours at rate of 0.5 ml/hr. Group 1 (n=9) received a dose of 100 mg/kg IV bolus followed by 20 mg/kg/hr IV infusion for 4 hours. Group 2 (n=11) received a dose of 30 mg/kg IV bolus followed by 6 mg/kg/hr IV infusion for 4 hours. Group 3 (n=9) received a dose of 10 mg/kg IV bolus followed by 2 mg/kg/hr IV infusion for 4 hours. Group 3 rats were also treated at 120 minutes, 180 minutes and 360 minutes post-occlusion. Group 4 (n=8) received a dose of 3 mg/kg IV bolus followed by […] IV infusion for 4 hours.
Two additional drug treated groups received 2-(3-sulfanylpropyl)pentanedioic acid. For each rat, the treatment was initiated at 120 minutes post middle cerebral artery occlusion (MCAO) by an IV bolus injection which was immediately followed by IV infusion for 4 hours at rate of 0.5 ml/hr. Group 5 received a dose of 30 mg/kg IV bolus followed by 6 mg/kg/hr IV infusion for 4 hours. Group 6 received a dose of 10 mg/kg IV bolus followed by 2 mg/kg/hr IV infusion.
Twenty two hours following the reperfusion, the rats were euthanized and their brains were removed. Seven coronal sections (2 mm thick) were taken and stained with 1% solution of 2,3,5-triphenyl-tetraxolium chloride (TTC) for 20 minutes and then fixed in 10% formalin. The anterior and posterior surface of the most rostral brain section and the posterior surface of each of the remaining 6 sections were imaged. The quantification of infarct size of each brain was obtained using a computer aided-digital imaging analysis system (LOATS). The brain regions completely lacking TTC-staining were characterized as representative of infarcted tissue. The total infarct volume for each rat was calculated by numeric integration of the respective sequential brain areas.
Male Sprague-Dawley rats (260-320 g) were used. They were individually housed and allowed free access to food and water. Two days prior to the experiment, they were given restricted food if necessary to maintain the body weight Each rat received two surgeries: femoral vein cannulation for IV infusion and MCAO. During surgeries, the rat was anesthetized with 1.5% halothane delivered in oxygen via an inhalation mask. The body temperature was monitored and regulated at normothermic level using a homeothermic heating system. First, a catheter was inserted into the left femoral vein. Thirty minutes later, the rat was reanesthetized for MCAO surgery. The MCAO was achieved using the endovascular suture method described by Long et al., Stroke, Vol. 20, pp. 84-91 (1989). Specifically, the right external carotid artery (ECA) was exposed, coagulated and transected. A 3-0 monofilament nylon suture with a blunted tip and a coat of 0.05% Poly-1-Lysine was introduced into the proximal stump of the ECA via an arteriotomy. It was advanced 22 mm from the carotid bifurcation until it lodged in the proximal region of the anterior cerebral artery, thereby occluding the origin of the MCA. The rats were allowed to wake up; 2 hours later, the rats were reanesthetized for reperfusion, during which the nylon suture was retracted to the stump of the ECA allowing blood recirculation to the MCA.

The subject of the next assay is BB/W diabetic rats. The assay is described as follows: progression of neuropathic pain in BB/W diabetic rats, thermal nociception. It is filed as in vivo, Male BB/W rats. The following applies: 10 mg/kg i.p. daily; starting after 4 weeks, through six months. The source says: Male BB/W rats (BR1, Mass) spontaneously develop a cell mediated autoimmune destruction of pancreatic B cells, resulting in onset of insulin-dependent (Type I) diabetes (Guberski 1994). […] This renders them valuable for experimental trials of new compounds for future treatments of this major disorder. In the present study, Compound 1 and Compound 2 were examined for their ability to alter the progression of diabetic neuropathy. The rats received daily injection of Compound 1 or Compound 2 (10 mg/kg i.p.) or vehicle, starting at the onset of diabetes (hyperglycemia) and up to 6 months thereafter. Another group of non-diabetic rats also receiving vehicle were tested. All animals were continuously monitored for body weight, urine volume, blood sugar and glycated haemoglobin. In the first month of the study, all animals were tested for thermal nociception in a Hargreaves apparatus, weekly. After the first month this was done biweekly and then monthly. The testing consists of directing an infrared heat source onto the […] surface of the rat hindpaw and noting the time taken for the animal to remove its paw (for detailed method see Hargreaves et al. 1998). Each animal was tested 8 times and the mean withdrawal latency noted.

In a further assay the test system is PCP-treated rats. Nature of the assay: in vivo assay on schizophrenia (PCP model). The following applies: 50 mg/kg i.p. before PCP (5 mg/kg). The procedure: Rats treated with PCP develop symptoms, such as frantic running and incessant head-turning, that parallel psychotic symptoms in humans. Thus, to examine the effects of NAALADase inhibition on schizophrenia, rats were treated intraperitoneally with Compound 1 (50 mg/kg), Compound 2 (50 mg/kg) or a vehicle (H2O) before they received PCP (5 mg/kg). Head rolling scores were measured for over 2 hours following PCP injection.

Assay [1] deals with acetic acid (0.6%) induced writhing. Nature of the assay: acetic acid model of pain (writhing). It is filed as in vivo, mice. The following applies: pretreated. The source says: One source of neuronal glutamate is thought to derive from the abundant neuropeptide NAAG which is hydrolyzed by NAALADase to liberate free glutamate. The inventors hypothesized that inhibition of NAALADase could limit pain by preventing this source of glutamate. To test this hypothesis, the inventors examined the possible antinocipetive effects of several NAALADase inhibitors in the formalin-, acetic acid- and chronic constrictive injury (CCI; “Bennett model”) models of pain. […] On day 7, 5% formalin was injected into the dorsum of the rat's hindpaw.
A general note: Writhing tests count abdominal constrictions after an irritant is injected.

`O=C(O)CCC(CCS)C(=O)O` (centres unmarked) [Compound 1, 2-(2-sulfanylethyl)pentanedioic acid]: the “mean total brain infarct volume” value with rat MCAO model of stroke (Group 1: 100 mg/kg IV bolus + 20 mg/kg/hr IV infusion 4 hours, 60 minutes post MCAO) was found to be 123±31 mm^3; in the assay with rat MCAO model of stroke (Group 2: 30 mg/kg IV bolus + 6 mg/kg/hr IV infusion 4 hours, 60 minutes post MCAO) it was 141±78 mm^3; with rat MCAO model of stroke (Group 3: 10 mg/kg IV bolus + 2 mg/kg/hr IV infusion 4 hours, treated at 60 minutes post-occlusion), 152±32 mm^3; with rat MCAO model of stroke (Group 4: 3 mg/kg IV bolus + 3 mg/kg/hr IV infusion 4 hours, 60 minutes post MCAO), 117±22 mm^3. The “neuroprotection in rat MCAO model of stroke” value in the assay on rat MCAO model of stroke (administered 60, 120, 180 and 360 minutes post-occlusion) is reported as “neuroprotective”. Moreover, the “% Protect” value is 20% in the assay with rat MCAO model of stroke (dose 1 mg/kg, 60 minutes post MCAO); 52% in the assay with rat MCAO model of stroke (dose 3 mg/kg, 60 minutes post MCAO); 50% with rat MCAO model of stroke (dose 10 mg/kg, 60 minutes post MCAO); 33% with rat MCAO model of stroke (dose 10 mg/kg, 120 minutes post MCAO); 47% in the assay with rat MCAO model of stroke (dose 10 mg/kg, 180 minutes post MCAO); 50% with rat MCAO model of stroke (dose 10 mg/kg, 360 minutes post MCAO). The “% Protect” value in the assay with rat MCAO model of stroke (dose 30 mg/kg, 60 minutes post MCAO) was determined as 52%; in the assay with rat MCAO model of stroke (dose 100 mg/kg IV bolus, 60 minutes post MCAO), 44%. The “infarct size vs. vehicle treated rats” value in the assay with rat MCAO model of stroke (four Compound 1 treated groups) is on record as “significantly smaller infarct size”. In addition, the “withdrawal latencies vs. diabetic vehicle-treated rats” value with BB/W diabetic rats is reported as “longer withdrawal latencies”. For the same compound, the “locomotor-activating effects of PCP (head rolling scores)” value with PCP-treated rats is “significantly reduced”. The “acetic acid (0.6%) induced writhing vs. vehicle control” value in assay [1] is recorded as “significantly attenuated”.

These data come from patent US20030083374A1, “NAALADase inhibitors useful as pharmaceutical compounds and compositions” (priority 1998, published 2003).
